This note sets out measurements from patent publication US5364944A, “Substituted benzoylbenzene-, biphenyl- and 2-oxazole- alkanoic acid compounds” (American Home Products Corporation, priority 1993, dated 1994).

The target of test [1] is T1, LTD4-induced contractions of isolated guinea pig trachea (Cavia porcellus, UniProt Q2NNR5).
T1 construct: isolated guinea pig trachea; from tissue; host or cells: tracheal rings of male Hartley guinea pigs
T1 sequence (Q2NNR5 1-340): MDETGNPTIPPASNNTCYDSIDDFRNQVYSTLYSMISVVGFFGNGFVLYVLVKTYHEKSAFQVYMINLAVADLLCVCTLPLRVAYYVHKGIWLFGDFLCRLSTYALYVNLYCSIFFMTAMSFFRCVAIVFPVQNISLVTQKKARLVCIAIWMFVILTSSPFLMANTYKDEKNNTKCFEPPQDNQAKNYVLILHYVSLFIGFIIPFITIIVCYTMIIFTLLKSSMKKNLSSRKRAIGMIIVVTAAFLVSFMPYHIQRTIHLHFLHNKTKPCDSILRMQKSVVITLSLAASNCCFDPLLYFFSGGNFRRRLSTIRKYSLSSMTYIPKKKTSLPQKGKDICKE
Briefly: In vitro isolated guinea pig trachea assay, LTD4 antagonist activity. Also noted: species or system guinea pig (male Hartley). The note with it: 1 × 10^-5 M. The method, then:
The LTD4 antagonist activity of the compounds of the invention is assessed in the in vitro isolated guinea pig trachea assay. This assay is carried out as follows: Male Hartley guinea pigs (350-400 g) are euthanized by a blow to the head, the neck is opened and the trachea removed. The trachea is maintained in aerated physiological salt solution, cleared of connective tissue and fat and cut into rings approximately 2 mm in width (usually containing two cartilaginous segments per ring). Two pieces of silk suture are then passed through the lumen of the tracheal ting and are tied around the cartilage, one on each side of the trachealis muscle. The tracheal ring is suspended between a glass hook and a force displacement transducer in a 10 ml organ bath for measurement of isometric tension. […] The tracheal rings are maintained at 2 g resting tension and equilibrated for 45 minutes (with frequent washing and readjustment of resting tension). The tracheal […] contracted by the addition of carbachol (3×10^-6 M), to determine tissue responsiveness and establish a reference contraction. On attainment of a stable level of contraction (approximately 30 minutes), the tissues are washed several times until baseline tension has been restored and the re-equilibrated for 30 minutes. The tissues are then incubated for 45 minutes with a test antiagonist (either 1×10^-6 M or 1×10^-5 M) or 10 μl of an appropriate solvent control (control, nontreated). One tissue in each group serves as the control. Twenty minutes prior to the construction of the LTD4 cumulative concentration-response curve, L-[…]×10^-2 M final bath concentration) is added to inhibit bioconversion of LTD4 to LTE4. Only one LTD4 concentration-response curve is constructed in each tissue. All responses to LTD4 in an individual tissue are measured as a percentage of the reference contraction of that tissue to carbachol. LTD4 antagonist activity is determined by comparison of the concentration response curves of LTD4 in the presence and absence of antagonist. Assessment of the relative rightward shift of the antagonist treated curve relative to the solvent (control) treated tissue is calculated as a concentration ratio (Eq. A) and used in subsequent calculations to derive an antagonist pKB value (Eqs. B and C). […] If a compound is found to be active and/or depress the maximal response to LTD4, then a range of concentrations of the test compound should be used generating multiple concentration ratios which would then be used to perform a Schild analysis, and determination of a pA2 value where appropriate.

The test system of test [2] is biosynthesis of LTB4 by isolated human neutrophils. Description: Inhibition of LTB4 biosynthesis by isolated human neutrophils (PMN). It counts as cell-based. As to conditions: Neutrophil, A23187 stimulated human PMN, read-out: % Inhibition of LTB4 Synthesis. The method, then: The ability of the compounds of the invention to inhibit the biosynthesis of LTB4 by isolated human neutrophils is evaluated in the following assay, which is carried out in this manner.
A leukocyte enriched blood sample obtained from a healthy donor is procured by leukophoresis using a Haemonetics model 30+ blood processor (Biological Specialties, Inc., Lansdale, Pa.). The top "platelet-rich" layer is removed after a low speed spin (35×g, 15 min, 25° C.) of the sample. The remaining cell suspension is centrigued (400×g, 10 min, 25° C.) to sediment the remaining cells. The supernatant is discarded and the cell pellet resuspended in 120 ml HBSS (without Ca^++ /Mg++). The cell suspension is subjected to ficoll-hypaque sedimentation (Histopaque 1077, 400×g, 30 min, 25° C.). Contaminating erythrocytes are lysed by hypotonic shock (1 min). The cells are then washed once with 40 ml of HBSS and resuspended with HBS S (without Ca^++ /Mg^++) to a concentration of 2.5×10^7 cells/ml for further use. Greater than 95% purity is obtained as assessed by microscopic examination.
One ml of human PMN (2.5×10^7 cells/ml) is incubated with vehicle or drugs (10 μl) for 10 min at 30° C. After preincubation, an equal volume of HBSS (1 ml) containing 2.4 mM CaCl2, 6 μM calcium ionophore A23187 and 50 μCi[^3 H]-acetate is then incubated at 30° C. for 15 minutes. An aliquot (100 μl) of the reaction mixture is taken out and mixed with 900 μl of 15% ethanol. LTB4 is extracted by using solid phase extraction on reverse phase C18 columns to remove excess [^3 H]-acetate and PAF. The C18 column is prewashed once with 2 ml of ethanol and water. The sample aliquot is acidified with 0.1 N HCl to pH3 before applying to the column. The column is then washed with 2 ml of water followed by 2 ml of 15% ethanol and 2 ml of petroleum ether to remove excess labeled acetate. The sample is eluted with 2 ml of ethyl acetate. The collected samples are dried with nitrogen and resuspended in 0.5 ml RIA buffer. The quantity of LTB4 in the sample is obtained from RIA determination.
Data presented are the mean +/- s.d. of the values relative to control A23187 stimulated cells for each experiment assayed in triplicate. Percent inhibition when used is calculated as:
% Inhibition=100-[(×.div.Control )×100]
Dose response analysis is performed by non-linear regression analysis for curve fitting and IC50 determination.

Some results are limits rather than exact numbers.

In general, Kb refers to the affinity of an antagonist, worked out from how it opposes an agonist. A low value points to higher antagonist affinity. As usually defined, the inhibition is how much of the control response was suppressed. As to `CC(C(=O)N(C)O)c1ccc(-c2ccc(OCc3csc(-c4ccccc4)n3)cc2)cc1` (stereo not drawn) [Example 21, N-Hydroxy-N,α-dimethyl-4'-[(2-phenylthiazol-4-yl)methoxy][1,1'-biphenyl]-4-acetamide], the Kb in test [1] is greater than 10 µM. Moreover, the inhibition at 2.5 µM in test [2] turned out to be 91.2%.
